Assay results taken from PubChem BioAssay (NCI).
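Interpolation was linear, between the two tested concentrations surrounding the appropriate level; five concentrations were tested over 48 hours in 96-well plates. GI50 = concentration required for 50% inhibition of growth. TGI marks complete inhibition of growth.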

Columns and labels:
Assay in all cases: DTP human tumour cell line panel, 48 h
TK-10 renal = system: TK-10 renal
ACHN renal = system: ACHN renal
NCI-H226 lung = system: NCI-H226 lung
RXF 393 renal = system: RXF 393 renal
HCC-2998 colon = system: HCC-2998 colon
HT29 colon = system: HT29 colon
A549 NSCLC = system: A549 NSCLC
NCI-H522 lung = system: NCI-H522 lung
U251 CNS = system: U251 CNS
MDA-MB-231 breast = system: MDA-MB-231 breast

Row | Structure (SMILES) | TGI (TK-10 renal) [µM] | TGI (ACHN renal) [µM] | TGI (NCI-H226 lung) [µM] | TGI (RXF 393 renal) [µM] | TGI (HCC-2998 colon) [µM] | TGI (HT29 colon) [µM] | TGI (A549 NSCLC) [µM] | TGI (NCI-H522 lung) [µM] | TGI (U251 CNS) [µM] | GI50 (TK-10 renal) [µM] | GI50 (NCI-H226 lung) [µM] | GI50 (RXF 393 renal) [µM] | GI50 (U251 CNS) [µM] | GI50 (ACHN renal) [µM] | GI50 (MDA-MB-231 breast) [µM] | TGI (MDA-MB-231 breast) [µM] | GI50 (HCC-2998 colon) [µM] | GI50 (HT29 colon) [µM] | GI50 (A549 NSCLC) [µM] | GI50 (NCI-H522 lung) [µM]
1 | Cn1c(N)nc(=O)c2c1N(C1OC(CO)C(O)C1O)CN2Cc1ccccc1 (centres undefined) | > 100 | > 100 | > 100 | > 100 | > 100 | > 100 | > 100 | > 100 | > 100 | – | – | – | – | – | – | – | – | – | – | –
2 | Cc1[nH]c(=O)[nH]c1C(=O)c1ccc(-n2ccnc2)cc1 | – | > 100 | > 100 | > 100 | > 100 | > 100 | > 100 | > 100 | > 100 | – | – | – | – | – | – | – | – | – | – | –
3 | CCc1cc(CCC(=O)Nc2ccccc2[N+](=O)[O-])[nH]c(=S)n1 | > 100 | > 100 | > 100 | > 100 | – | > 100 | > 100 | – | > 100 | – | – | – | – | – | – | – | – | – | – | –
4 | N#CC1(C#N)C2C=CC(c3coc4cccc2c34)C1(C#N)C#N (centres undefined) | 18.6 | 17 | 34.3 | 9.66 | 30 | 41.6 | 37.5 | 3.4 | 33.9 | – | – | – | – | – | – | – | – | – | – | –
5 | Nc1ccc(-c2cccs2)cc1NC(=O)c1ccc(CCCC(=O)Nc2ccc(C3CC3N)cc2)cc1 (centres undefined) | 39.2 | – | 7.57 | 30 | – | – | – | – | 3.16 | 2.44 | 2.7 | 2.45 | 1.6 | – | – | – | – | – | – | –
6 | CN(C)CCNc1c2ccccc2nc2oc3ccccc3c12 | 55.5 | 25.8 | 47.1 | – | 22.3 | 19.6 | 36 | 18.3 | 24.7 | 5.86 | 8.65 | – | 7.87 | 4.48 | 6.47 | 27.2 | 8.49 | 3.97 | 4.75 | 4.6
7 | C=C(C(=C)N1N=NC2C3CCC(C3)C21)N1N=NC2C3CCC(C3)C21 (centres undefined) | > 100 | > 100 | – | > 100 | > 100 | > 100 | > 100 | > 100 | > 100 | – | – | – | – | – | – | – | – | – | – | –
8 | CCOC(=O)c1cnc2c(ccc3ncccc32)c1NCCCN(CC)CC | > 100 | > 100 | > 100 | – | > 100 | > 100 | > 100 | > 100 | > 100 | – | – | – | – | – | – | – | – | – | – | –
9 | CCCCCCCCCC(=O)OCC1OC(n2cc(F)c(=O)[nH]c2=O)C(NC(=O)OCc2ccccc2)C(OC(=O)CCCCCCCCC)C1O (centres undefined) | > 100 | > 100 | – | 44 | > 100 | 35 | > 100 | 72.2 | 30.3 | – | – | – | – | – | – | – | – | – | – | –
10 | NS(=O)(=O)c1ccc(N(/C=C/C(=O)C(F)(F)F)Cc2ccc(Cl)cc2)cc1 | 55.8 | 78.1 | – | 47 | 35.5 | > 100 | > 100 | 38.4 | 75.8 | 23.5 | – | 16 | 26.5 | 31.7 | 18.3 | 57.8 | 18.1 | 43.9 | 27.7 | 12.6
11 | CC(C(N)C(=O)NC(C(=O)O)C1OC(n2ccc(=O)[nH]c2=O)C(O)C1O)C(O)c1ccc(O)cn1 (centres undefined) | > 100 | > 100 | – | – | > 100 | > 100 | > 100 | > 100 | > 100 | – | – | – | – | – | – | > 100 | – | – | – | –
12 | O=C(NO)[C@@H](Cc1ccccc1)NS(=O)(=O)c1ccc(-c2ccccc2)cc1 | > 25 | > 25 | > 25 | – | > 25 | > 25 | > 25 | > 25 | > 25 | 19.1 | > 25 | – | 21.3 | 12.2 | > 25 | > 25 | > 25 | > 25 | > 25 | > 25
13 | CC(C)(C)c1ccc(OCCOCCOc2ccc(C(C)(C)C)cc2S(=O)(=O)Nc2ccc([N+](=O)[O-])cc2)c(S(=O)(=O)Nc2ccc([N+](=O)[O-])cc2)c1 | > 100 | > 100 | > 100 | > 100 | > 100 | > 100 | > 100 | – | > 100 | – | – | – | – | – | – | – | – | – | – | –
14 | CC1=C(O)/C(=C/C(C)CCC/C(C)=C/C=C/C(C)CCCc2ccoc2)OC1=O (centres undefined) | 78.6 | 50.9 | 68.8 | > 100 | 63 | > 100 | 73.6 | > 100 | > 100 | – | – | – | – | – | – | – | – | – | – | –
15 | O=C1C2CCN(CC2)C1(CO)CO | 32.2 | 32.3 | 46.6 | 52 | – | 73.7 | > 100 | 33.2 | > 75.5 | – | – | – | – | – | – | 44 | – | – | – | –
16 | C=C1CC2CC(O)CC(C1)C2 (centres undefined) | > 100 | > 100 | > 100 | > 100 | – | > 100 | > 100 | > 100 | > 100 | – | – | – | – | – | – | – | – | – | – | –
17 | CCCN(CCC)c1ccc(/C=N/NC(=O)c2cccnc2)c(OC)c1 | 90.1 | > 100 | > 100 | 84.8 | 98.4 | 55 | > 100 | 56.9 | > 100 | 28.7 | 32 | 28.7 | 23.2 | 28.8 | – | – | 26.6 | 15.8 | 26.6 | 20.3
18 | COc1ccc(/C=C2\CCC(CCN(C)C)(C3=CCCC3)C2=O)cc1Br (centres undefined) | 20 | 21.5 | 31.4 | 6.99 | 4.71 | 7.14 | 24 | 3.98 | 19 | – | – | – | – | – | – | – | – | – | – | –
19 | CSc1snc2sc3c(Cl)nnnc3c12 | 30.9 | 23.3 | – | 25.1 | 21.2 | 19.6 | 33.9 | – | 28.6 | – | – | – | – | – | – | – | – | – | – | –
20 | O=C(N/N=C1\C(=O)N(c2nccs2)C(=O)C(=O)C1c1nc2ccccc2s1)c1ccccc1O (centres undefined) | > 100 | > 100 | > 100 | > 100 | > 100 | > 100 | > 100 | 96.9 | > 100 | – | – | – | – | – | – | – | – | – | – | –
